Measured values reported in ChEMBL document CHEMBL1201862, “PubChem BioAssay data set” (2004).
Calls of active or inactive are those of the source.

Experiments:
SUMO-activating enzyme = SUMO-activating enzyme (Homo sapiens, UniProt Q9UBT2); test: inhibitors of in vitro SUMOylation cascade, primary screen, biochemical, HTRF, uHTS (AID 2006); format: protein-complex assay
[1] = target: T1, Mannose-6-phosphate isomerase (Homo sapiens, UniProt P34949); test: human PMI inhibitors, high substrate, primary screen, biochemical, fluorescence intensity, high mannose 6-phosphate (AID 1220)
T1 sequence (P34949 whole entry): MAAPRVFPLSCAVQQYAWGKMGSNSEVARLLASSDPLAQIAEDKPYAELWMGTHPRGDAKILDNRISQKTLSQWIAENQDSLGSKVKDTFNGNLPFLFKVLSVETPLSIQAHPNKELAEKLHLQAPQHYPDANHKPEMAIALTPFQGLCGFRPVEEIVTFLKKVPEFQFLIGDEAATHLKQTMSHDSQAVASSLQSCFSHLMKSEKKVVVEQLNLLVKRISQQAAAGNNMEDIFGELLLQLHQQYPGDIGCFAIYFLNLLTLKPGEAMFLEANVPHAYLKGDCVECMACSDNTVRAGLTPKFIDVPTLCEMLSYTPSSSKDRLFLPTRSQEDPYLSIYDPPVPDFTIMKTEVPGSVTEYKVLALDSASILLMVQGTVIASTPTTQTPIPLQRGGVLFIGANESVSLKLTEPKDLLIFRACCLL

[2] = target: T2, Runt-related transcription factor 1/Core-binding factor subunit beta (Homo sapiens, UniProt Q01196+Q13951); test: inhibitors of RUNX1 Runt–CBFb-SMMHC binding, primary screen, biochemical, FRET, Cerulean-Runt, Venus-CBFb-SMMHC, uHTS (AID 1434); format: protein assay;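 further: partner is the CBFb-SMMHC leukemia fusion protein rather than wild-type CBFb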
[3] = target: T2, Runt-related transcription factor 1/Core-binding factor subunit beta; test: inhibitors of RUNX1 Runt–CBFb-SMMHC binding, biochemical, TR-FRET (AID 1438); format: protein assay
[4] = target: T3, Voltage-gated N-type calcium channel alpha-1B subunit/Amyloid beta A4 precursor protein-binding family A member 1 (Homo sapiens, UniProt Q00975+Q02410); format: protein assay
[5] = target: T3, Voltage-gated N-type calcium channel alpha-1B subunit/Amyloid beta A4 precursor protein-binding family A member 1; format: protein assay; remark: listed apart in the source
[6] = target: T4, Corticotropin-releasing factor receptor 2/Corticotropin-releasing factor-binding protein (Homo sapiens, UniProt P24387+Q13324); test: activators of CRF receptor 2 with binding protein – uHTS hits, confirmation (AID 602473); format: functional; conditions: read-out: EC50_Mean
T4 sequence (Q13324 whole entry): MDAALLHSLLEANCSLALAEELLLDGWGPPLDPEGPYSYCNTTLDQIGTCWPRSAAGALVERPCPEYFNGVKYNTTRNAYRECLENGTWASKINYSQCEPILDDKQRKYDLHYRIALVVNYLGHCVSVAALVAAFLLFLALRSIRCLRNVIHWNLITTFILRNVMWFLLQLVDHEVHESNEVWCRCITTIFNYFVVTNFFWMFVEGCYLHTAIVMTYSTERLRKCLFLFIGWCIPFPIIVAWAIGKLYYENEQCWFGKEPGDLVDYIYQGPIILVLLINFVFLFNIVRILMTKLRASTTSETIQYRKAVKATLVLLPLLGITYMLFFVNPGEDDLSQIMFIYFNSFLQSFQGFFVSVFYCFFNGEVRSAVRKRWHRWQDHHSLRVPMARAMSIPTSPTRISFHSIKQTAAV
T4 sequence (P24387 whole entry): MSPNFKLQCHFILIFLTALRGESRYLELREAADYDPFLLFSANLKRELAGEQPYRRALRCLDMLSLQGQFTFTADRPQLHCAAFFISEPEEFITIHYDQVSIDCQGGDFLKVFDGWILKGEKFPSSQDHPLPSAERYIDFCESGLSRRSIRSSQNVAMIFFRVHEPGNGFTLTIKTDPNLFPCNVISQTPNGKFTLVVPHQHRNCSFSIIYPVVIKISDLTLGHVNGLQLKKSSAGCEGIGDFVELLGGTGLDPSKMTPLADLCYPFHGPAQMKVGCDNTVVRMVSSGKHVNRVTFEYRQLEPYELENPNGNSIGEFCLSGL

[7] = system: Streptococcus sp. 'group A'; test: growth inhibition of control SK(-) GAS strain, dose response, counter-screen for streptokinase expression inhibitor project, luminescence, kanamycin, BacTiterGlo, confirmation (AID 1900); format: functional, organism-based
[8] = target: COUP transcription factor 2 (Homo sapiens, UniProt P24468); test: Luminescence-based cell-based high throughput dose response assay to identify inhibitors of COUP-TFII (NR2F2).; format: functional;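 further: HEK293 cells transiently cotransfected with COUP-TFII expression vector and reporter; luciferase reporter luminescence driven by COUP-TFII from the pX2-168 reporter plasmid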
Streptokinase A = target: T5, Streptokinase A (Streptococcus pyogenes serotype M1, UniProt P10520); test: S. pyogenes streptokinase expression inhibitors, potency, dose response, plasminogen activation absorbance, OD405 (AID 1914); format: functional, Streptococcus pyogenes M1 GAS;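 further: secreted streptokinase activity via plasminogen activation per viability signal from cell pellet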
T5 sequence (P10520 whole entry): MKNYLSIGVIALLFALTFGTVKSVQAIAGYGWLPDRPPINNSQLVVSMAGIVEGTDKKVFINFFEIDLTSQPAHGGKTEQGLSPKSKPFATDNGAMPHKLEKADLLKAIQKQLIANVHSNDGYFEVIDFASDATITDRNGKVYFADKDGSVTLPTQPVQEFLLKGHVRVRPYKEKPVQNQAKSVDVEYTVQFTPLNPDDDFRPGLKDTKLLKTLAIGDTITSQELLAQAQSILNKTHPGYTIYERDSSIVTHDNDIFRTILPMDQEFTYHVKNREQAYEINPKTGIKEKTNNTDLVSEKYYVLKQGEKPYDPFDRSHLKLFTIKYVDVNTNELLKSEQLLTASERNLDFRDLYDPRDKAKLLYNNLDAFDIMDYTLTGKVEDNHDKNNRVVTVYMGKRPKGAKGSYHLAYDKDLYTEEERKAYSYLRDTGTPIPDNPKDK

Streptococcus = test: Group A Streptococcus viability loss, dose response, counter-screen for streptokinase expression inhibitor project, luminescence, BacTiterGlo (AID 1915); format: functional, organism-based;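 further: potency for reduction of bacterial viability or growth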
[9] = target: T4, Corticotropin-releasing factor receptor 2/Corticotropin-releasing factor-binding protein; test: Dose Response confirmation of uHTS hits for small molecule antagonists of the CRF-binding protein and CRF-R2 receptor complex.; format: functional; conditions: read-out: IC50_Mean
[10] = cytotoxicity in HEK-293T cells, dose response, cytotoxicity control for TCR NF-kB inhibitor project, luminescence, T-cell screen hits (AID 489026); format: functional, cell-based;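 further: cells exposed to compound about 14 hours before the viability readout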
Trypsin = Trypsin (Sus scrofa, UniProt P00761); test: porcine trypsin inhibitors, dose response, selectivity assay for Rce1 protease inhibitor project, biochemical, quenched peptide fluorescence, cherry-pick (AID 488789)
CAAX prenyl protease 2 = target: T6, CAAX prenyl protease 2 (Saccharomyces cerevisiae S288c, UniProt Q03530); format: biochemical
T6 sequence (Q03530 whole entry): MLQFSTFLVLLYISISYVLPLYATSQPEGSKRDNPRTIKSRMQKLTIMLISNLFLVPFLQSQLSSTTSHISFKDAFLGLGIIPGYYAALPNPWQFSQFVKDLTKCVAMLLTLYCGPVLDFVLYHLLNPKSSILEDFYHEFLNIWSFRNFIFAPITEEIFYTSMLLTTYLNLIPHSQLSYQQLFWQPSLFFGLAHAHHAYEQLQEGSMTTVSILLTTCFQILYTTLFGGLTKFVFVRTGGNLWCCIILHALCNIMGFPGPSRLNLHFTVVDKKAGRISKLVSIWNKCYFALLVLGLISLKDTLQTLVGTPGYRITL

[11] = growth suppression of beta-catenin-knockout colon cells, dose response, cell-based, HCT116, human colon tumor (AID 1045); format: functional;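 further: HCT116 colon tumor cells with beta catenin knocked out; cells exposed to compound for 60 hours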
Beta Lactamase = Beta Lactamase (Pseudomonas aeruginosa, UniProt Q932Y6); test: beta-lactamase reporter inhibitor potency, dose response, artefact control for NOD2-RIPK2 interaction inhibitor project, BLA reporter cells, FRET fluorescence (AID 651552); format: functional, cell-based
[12] = Fluorescence-based cell-based high throughput dose response assay for inhibitors of the interaction of nucleotide-binding oligomerization domain containing 2 (NOD2) and the receptor-interacting serine-threonine kinase 2 (RIPK2).; format: functional; conditions: Homo sapiens
Hexokinase HKDC1 = target: T7, Hexokinase HKDC1 (Homo sapiens, UniProt Q2TB90); test: HKDC1 hexokinase inhibitors, dose response, biochemical, W721R variant (AID 504729); format: functional
T7 sequence (Q2TB90 whole entry): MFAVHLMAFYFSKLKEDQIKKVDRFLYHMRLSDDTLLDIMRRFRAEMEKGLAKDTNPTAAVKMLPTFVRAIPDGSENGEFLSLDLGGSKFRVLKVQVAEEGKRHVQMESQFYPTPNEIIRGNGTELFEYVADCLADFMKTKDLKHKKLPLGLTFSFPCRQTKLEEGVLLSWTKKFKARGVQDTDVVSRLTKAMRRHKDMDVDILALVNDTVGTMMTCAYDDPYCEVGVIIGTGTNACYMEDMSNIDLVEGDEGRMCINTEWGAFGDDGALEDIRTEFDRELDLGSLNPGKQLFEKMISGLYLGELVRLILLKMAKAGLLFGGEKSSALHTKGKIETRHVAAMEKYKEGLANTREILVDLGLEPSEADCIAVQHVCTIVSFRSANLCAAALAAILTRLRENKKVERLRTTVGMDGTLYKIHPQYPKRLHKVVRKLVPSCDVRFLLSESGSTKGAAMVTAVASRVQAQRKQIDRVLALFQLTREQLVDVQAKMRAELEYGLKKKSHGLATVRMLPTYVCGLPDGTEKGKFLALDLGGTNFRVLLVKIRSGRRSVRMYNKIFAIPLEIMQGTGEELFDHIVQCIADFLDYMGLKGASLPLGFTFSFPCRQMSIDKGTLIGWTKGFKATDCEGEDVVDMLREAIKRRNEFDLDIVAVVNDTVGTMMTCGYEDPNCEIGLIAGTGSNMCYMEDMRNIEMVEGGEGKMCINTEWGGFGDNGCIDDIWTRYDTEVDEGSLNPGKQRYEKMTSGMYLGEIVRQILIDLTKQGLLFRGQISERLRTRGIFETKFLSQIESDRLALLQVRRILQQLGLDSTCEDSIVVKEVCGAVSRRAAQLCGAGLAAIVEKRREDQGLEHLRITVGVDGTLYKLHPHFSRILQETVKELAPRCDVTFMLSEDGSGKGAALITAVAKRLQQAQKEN

[13] = growth suppression of PTEN-null colon cells, dose response, cell-based, HCT116 PTEN knockout (AID 1047); format: functional;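 further: HCT116 colon tumor cells with PTEN knocked out; cells exposed to compound for 60 hours before readout; potency for loss of cell viability measured by luminescence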

T2 sequence (Q01196 whole entry, the tested form may be a part): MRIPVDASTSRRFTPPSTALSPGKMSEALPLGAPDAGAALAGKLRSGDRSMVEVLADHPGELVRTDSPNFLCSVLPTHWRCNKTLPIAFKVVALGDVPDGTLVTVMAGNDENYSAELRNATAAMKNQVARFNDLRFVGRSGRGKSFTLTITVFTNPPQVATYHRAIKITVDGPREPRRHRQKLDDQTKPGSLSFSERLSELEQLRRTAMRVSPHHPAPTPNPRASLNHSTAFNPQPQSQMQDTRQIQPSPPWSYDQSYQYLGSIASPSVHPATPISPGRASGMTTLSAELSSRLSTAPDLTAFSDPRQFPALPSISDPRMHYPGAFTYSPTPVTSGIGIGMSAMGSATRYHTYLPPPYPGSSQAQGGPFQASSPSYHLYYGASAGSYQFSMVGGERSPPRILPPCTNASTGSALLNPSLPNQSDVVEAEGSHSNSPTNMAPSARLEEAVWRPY
T2 sequence (Q13951 whole entry, the tested form may be a part): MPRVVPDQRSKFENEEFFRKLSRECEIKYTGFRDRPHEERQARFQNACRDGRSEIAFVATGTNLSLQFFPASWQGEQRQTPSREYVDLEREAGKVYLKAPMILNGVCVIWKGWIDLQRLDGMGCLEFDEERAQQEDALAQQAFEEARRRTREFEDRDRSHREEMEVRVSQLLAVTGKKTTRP
T3 sequence (Q00975 whole entry): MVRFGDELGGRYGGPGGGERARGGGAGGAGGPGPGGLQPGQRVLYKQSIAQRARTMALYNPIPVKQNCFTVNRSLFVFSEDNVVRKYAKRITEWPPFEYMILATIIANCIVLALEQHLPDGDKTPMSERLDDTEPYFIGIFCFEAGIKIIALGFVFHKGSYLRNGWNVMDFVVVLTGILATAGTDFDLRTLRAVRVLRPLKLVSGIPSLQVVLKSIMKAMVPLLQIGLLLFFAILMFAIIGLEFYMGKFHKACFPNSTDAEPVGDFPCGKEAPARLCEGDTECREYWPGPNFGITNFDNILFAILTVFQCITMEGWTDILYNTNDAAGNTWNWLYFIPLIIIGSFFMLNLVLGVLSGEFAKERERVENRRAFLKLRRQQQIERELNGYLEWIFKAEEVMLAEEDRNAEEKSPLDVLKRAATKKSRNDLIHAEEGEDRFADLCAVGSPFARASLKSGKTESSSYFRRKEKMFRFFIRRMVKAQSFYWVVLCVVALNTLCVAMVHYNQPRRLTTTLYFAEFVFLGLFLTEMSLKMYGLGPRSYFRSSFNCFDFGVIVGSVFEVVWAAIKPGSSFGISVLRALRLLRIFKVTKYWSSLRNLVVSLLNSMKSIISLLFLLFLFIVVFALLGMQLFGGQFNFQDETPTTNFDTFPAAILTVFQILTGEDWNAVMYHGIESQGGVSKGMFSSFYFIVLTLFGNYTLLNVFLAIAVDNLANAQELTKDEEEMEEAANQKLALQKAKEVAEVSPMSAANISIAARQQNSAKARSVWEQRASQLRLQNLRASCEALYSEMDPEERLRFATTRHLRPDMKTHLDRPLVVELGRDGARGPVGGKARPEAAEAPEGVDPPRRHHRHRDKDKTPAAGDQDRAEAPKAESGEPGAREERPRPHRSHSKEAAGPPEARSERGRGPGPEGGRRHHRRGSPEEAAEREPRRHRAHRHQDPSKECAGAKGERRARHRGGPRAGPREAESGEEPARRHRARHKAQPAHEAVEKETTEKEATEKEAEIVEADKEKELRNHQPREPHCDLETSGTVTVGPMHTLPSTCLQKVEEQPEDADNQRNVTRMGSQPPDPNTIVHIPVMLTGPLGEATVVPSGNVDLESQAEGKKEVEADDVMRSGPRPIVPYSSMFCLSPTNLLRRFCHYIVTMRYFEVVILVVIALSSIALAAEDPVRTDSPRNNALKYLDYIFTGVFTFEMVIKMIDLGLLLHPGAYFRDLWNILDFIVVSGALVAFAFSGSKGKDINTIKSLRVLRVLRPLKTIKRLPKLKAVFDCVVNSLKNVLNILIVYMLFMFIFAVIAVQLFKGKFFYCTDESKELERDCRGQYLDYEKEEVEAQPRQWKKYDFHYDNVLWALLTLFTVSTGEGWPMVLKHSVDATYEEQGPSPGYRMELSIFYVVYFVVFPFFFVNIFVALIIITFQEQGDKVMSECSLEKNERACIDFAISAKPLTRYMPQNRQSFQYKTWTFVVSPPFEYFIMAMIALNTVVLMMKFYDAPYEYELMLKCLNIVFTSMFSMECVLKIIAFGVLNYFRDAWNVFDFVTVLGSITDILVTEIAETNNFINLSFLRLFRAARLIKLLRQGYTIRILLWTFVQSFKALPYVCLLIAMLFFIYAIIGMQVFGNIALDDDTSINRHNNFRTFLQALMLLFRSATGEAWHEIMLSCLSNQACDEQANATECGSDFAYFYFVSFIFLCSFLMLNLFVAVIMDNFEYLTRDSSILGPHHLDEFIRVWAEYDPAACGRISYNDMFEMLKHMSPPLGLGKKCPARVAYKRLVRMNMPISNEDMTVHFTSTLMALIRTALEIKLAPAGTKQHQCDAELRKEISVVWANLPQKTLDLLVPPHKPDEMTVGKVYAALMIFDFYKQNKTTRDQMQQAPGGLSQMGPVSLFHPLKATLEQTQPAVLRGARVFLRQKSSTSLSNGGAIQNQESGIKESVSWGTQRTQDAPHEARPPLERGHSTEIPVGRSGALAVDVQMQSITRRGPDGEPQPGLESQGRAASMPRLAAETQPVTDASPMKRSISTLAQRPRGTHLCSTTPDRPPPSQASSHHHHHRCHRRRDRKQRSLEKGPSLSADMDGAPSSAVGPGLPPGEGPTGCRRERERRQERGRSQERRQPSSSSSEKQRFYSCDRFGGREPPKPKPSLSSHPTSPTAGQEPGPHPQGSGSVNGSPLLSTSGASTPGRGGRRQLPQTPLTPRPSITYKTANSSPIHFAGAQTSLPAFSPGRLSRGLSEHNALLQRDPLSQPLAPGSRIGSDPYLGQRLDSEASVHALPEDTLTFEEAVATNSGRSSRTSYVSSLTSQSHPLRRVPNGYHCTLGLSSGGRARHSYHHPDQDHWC
T3 sequence (Q02410 whole entry): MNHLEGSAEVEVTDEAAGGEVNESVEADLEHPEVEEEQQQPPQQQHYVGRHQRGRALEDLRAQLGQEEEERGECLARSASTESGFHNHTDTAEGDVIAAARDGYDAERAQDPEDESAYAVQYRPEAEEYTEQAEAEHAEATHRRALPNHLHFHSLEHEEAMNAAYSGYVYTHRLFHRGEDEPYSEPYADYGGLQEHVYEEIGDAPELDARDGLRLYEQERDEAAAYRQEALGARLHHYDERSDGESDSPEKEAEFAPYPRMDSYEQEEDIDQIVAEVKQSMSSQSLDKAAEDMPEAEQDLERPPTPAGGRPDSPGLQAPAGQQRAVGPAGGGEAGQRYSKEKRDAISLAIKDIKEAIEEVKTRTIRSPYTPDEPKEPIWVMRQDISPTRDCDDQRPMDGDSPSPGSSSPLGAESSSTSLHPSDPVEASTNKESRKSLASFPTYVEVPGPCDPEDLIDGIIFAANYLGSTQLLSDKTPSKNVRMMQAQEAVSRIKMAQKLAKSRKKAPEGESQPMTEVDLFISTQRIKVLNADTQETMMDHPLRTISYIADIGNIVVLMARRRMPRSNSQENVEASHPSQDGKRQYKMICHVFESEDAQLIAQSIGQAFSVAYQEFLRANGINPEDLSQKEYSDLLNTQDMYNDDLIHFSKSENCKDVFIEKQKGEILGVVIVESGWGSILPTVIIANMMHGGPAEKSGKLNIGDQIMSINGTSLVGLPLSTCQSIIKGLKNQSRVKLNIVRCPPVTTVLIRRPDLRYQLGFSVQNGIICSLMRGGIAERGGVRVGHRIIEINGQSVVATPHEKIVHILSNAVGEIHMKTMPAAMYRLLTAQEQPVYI
COUP transcription factor 2, sequence (P24468 whole entry): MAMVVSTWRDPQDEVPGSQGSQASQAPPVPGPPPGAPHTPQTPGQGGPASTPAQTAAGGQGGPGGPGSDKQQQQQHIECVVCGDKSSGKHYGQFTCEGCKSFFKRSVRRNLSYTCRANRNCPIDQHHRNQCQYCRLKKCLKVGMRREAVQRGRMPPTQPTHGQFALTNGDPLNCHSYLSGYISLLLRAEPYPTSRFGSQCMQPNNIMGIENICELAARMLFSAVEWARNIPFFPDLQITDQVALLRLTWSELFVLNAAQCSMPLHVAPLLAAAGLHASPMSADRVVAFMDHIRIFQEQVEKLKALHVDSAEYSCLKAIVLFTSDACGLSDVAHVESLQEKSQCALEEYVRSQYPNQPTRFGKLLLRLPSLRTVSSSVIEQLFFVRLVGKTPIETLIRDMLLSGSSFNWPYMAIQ
Trypsin, sequence (P00761 whole entry): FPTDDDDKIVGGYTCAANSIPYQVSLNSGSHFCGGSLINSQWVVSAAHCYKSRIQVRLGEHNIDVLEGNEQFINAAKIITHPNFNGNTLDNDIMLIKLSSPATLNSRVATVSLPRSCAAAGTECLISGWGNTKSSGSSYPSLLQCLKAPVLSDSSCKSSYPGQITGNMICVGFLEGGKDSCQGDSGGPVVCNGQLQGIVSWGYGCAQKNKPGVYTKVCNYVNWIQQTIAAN
Beta Lactamase, sequence (Q932Y6 whole entry, the tested form may be a part): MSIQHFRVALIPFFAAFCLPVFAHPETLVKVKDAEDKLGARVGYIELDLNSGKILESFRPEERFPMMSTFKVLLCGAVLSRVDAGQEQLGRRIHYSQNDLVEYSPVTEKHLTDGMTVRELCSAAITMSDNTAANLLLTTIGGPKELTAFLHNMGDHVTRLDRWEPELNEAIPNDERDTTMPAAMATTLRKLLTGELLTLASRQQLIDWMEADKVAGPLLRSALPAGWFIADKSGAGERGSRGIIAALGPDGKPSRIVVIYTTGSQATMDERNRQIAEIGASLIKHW

In the case of `CCN(CC)C(=O)C1CCCN(C(=O)Nc2ccc3nsnc3c2)C1` (configuration not stated), the IC50 (SUMO-activating enzyme) is reported as 12 µM (active) and the IC50 [1] is reported as > 50 µM (not active).
For `Cc1cccn2c(=O)c(/C=C(\C#N)C(=O)NCc3ccco3)c(N3CCCC(C)C3)nc12` (configuration not stated), the IC50 [2] was > 100 µM (inactive) and the IC50 [3] was > 100 µM (inactive).
With `COc1ccc(-c2cc3c(=O)n(CC(=O)Nc4ccc(C(C)=O)cc4)ncn3n2)cc1` the IC50 [4] was > 50 µM (inactive) and the IC50 [5] was 7.89 µM (active).
With `CCC(=O)Nc1c(S(=O)(=O)c2ccccc2)c2nc3ccccc3nc2n1Cc1ccccc1` the IC50 [2] was 4.74 µM (active) and the IC50 [3] was > 100 µM (inactive).
In the case of `COc1ccc(-c2ccc3oc(-c4ccc(OC)cc4)c(C#CCO)c3c2)cc1`, the EC50 [6] is reported as > 53 µM (inactive), the EC50 [7] is reported as > 150 µM (not active) and the IC50 [8] is reported as 3.38 µM (active). For the same compound, the EC50 (Streptokinase A) was > 150 µM (not active), the EC50 (Streptococcus) was > 150 µM (not active) and the IC50 [9] was > 47.1 µM (inactive). For the same compound, the IC50 [10] was > 80 µM (inactive).
For `CCn1cc(/C=C(\NC(=O)c2ccccc2)C(=O)N2CCOCC2)c2ccccc21`, the AC50 (Trypsin) was 23.6 µM (active) and the AC50 (CAAX prenyl protease 2) was 5.85 µM (active).
In the case of `CC(C)(C=O)C1=CC(=O)c2ccccc2C1=O`, the EC50 [11] is reported as 4.58 µM (active), the IC50 (Beta Lactamase) is reported as 11.5 µM (inactive) and the IC50 [12] is reported as 1.23 µM (active). The IC50 (Hexokinase HKDC1) was 27.9 µM (inactive) and the EC50 [13] was 4.68 µM (active).
